Measurements reported in publication PMC11480511 (Scientific Reports, 2024).
In brackets after ≈: the same amount, converted by molar mass. Read-outs that look alike come from different tables or passages of the source.

Columns and labels:
[1] = test system: K. pneumoniae ATCC 10,031; experiment: Antibacterial screening, agar cup diffusion method; assay type: cell-based; details: read-out: Minimum inhibitory concentrations (MIC, µM) K. pneumoniae ATCC 10,031
Description: (§1) Anti-bacterial activity of the recently synthesized compounds 3a-k was evaluated at AUMC (Assiut University Mycological Centre), Assiut, Egypt. Assays were done against Gram-negative strains of K. pneumoniae (ATCC 100310, E. coli (ATCC 25922), Pseudomonas aeruginosa (ATCC 27853) and the Gram-positive S. aureus (ATCC 6538) strain utilizing standard agar cup diffusion method. The isolates from the four bacterial species examined were kept in TSB (Trypticase Soya Broth, Becton and Dickinson) with 10% glycerol at -70 °C and then subcultured on TSA (Trypticase Soya Agar, Becton and Dickinson) and TSB for 24 h at 37 °C former to inoculation. Bacterial isolates were then plated on sterile petri plates with 1 × 10^8 CFU/mL (0.5 McFarland turbidity) and 20 mL of Mueller Hinton Agar media (Oxoid) was then loaded. To ensure that the microorganisms were evenly dispersed, the plates were gently rotated before being left to harden on a level surface. Four equally spaced spherical-shaped wells (10 mm diameter) were painstakingly drilled using a sterilized cork bore after media solidification. All tested compounds under test underwent two-fold serial dilutions in a sequential manner. Three replications of 100 µL of each concentration were added to a well using a micropipette. Plates were then incubated for 24-hour at 37 °C. The average of the inhibition zones was then calculated. To determine the MICs, the natural logarithm of each diluted test substance’s concentration was plotted against the average area of the related inhibition zone. Following that, a regression line was created and the intercept on the ‘ln concentration” axis was determined, and the antilogarithm was calculated to indicate the MIC value[34],[63].

NCI-H322M = experiment: NCI single-dose growth inhibition screen; assay type: cell-based; details: Homo sapiens; Non-Small Cell Lung Cancer NCI-H322M; single dose 10^−5 M
MDA-MB231 = experiment: NCI single-dose growth inhibition screen; assay type: cell-based; details: Homo sapiens, MDA-MB-231; Breast Cancer MDA-MB231; single dose 10^−5 M
DU-145 = experiment: NCI single-dose growth inhibition screen; assay type: cell-based; details: Homo sapiens; Prostate Cancer DU-145; single dose 10^−5 M
OVCAR-8 = experiment: NCI single-dose growth inhibition screen; assay type: cell-based; details: Homo sapiens; Ovarian Cancer OVCAR-8; single dose 10^−5 M
LOX IMVI = experiment: NCI single-dose growth inhibition screen; assay type: cell-based, human; details: Melanoma LOX IMVI, single dose 10^−5 M; for inhibition at 10 µM: Homo sapiens, LOX IMVI
HOP-92 = experiment: NCI single-dose growth inhibition screen; assay type: cell-based; details: Homo sapiens; Non-Small Cell Lung Cancer HOP-92; single dose 10^−5 M
SK-MEL-5 = experiment: NCI single-dose growth inhibition screen; assay type: cell-based, human; details: Homo sapiens, SK-MEL-5, Melanoma SK-MEL-5; single dose 10^−5 M
CAKI-1 = experiment: NCI single-dose growth inhibition screen; assay type: cell-based; details: Homo sapiens; Renal Cancer CAKI-1; single dose 10^−5 M
HS 578T = experiment: NCI single-dose growth inhibition screen; assay type: cell-based; details: Homo sapiens; Breast Cancer HS 578T; single dose 10^−5 M
MOLT-4 = experiment: NCI single-dose growth inhibition screen; assay type: cell-based; details: Homo sapiens; Leukemia MOLT-4; single dose 10^−5 M
786-0 = experiment: NCI single-dose growth inhibition screen; assay type: cell-based; details: Homo sapiens; Renal Cancer 786-0; single dose 10^−5 M
NCI-H460 = experiment: NCI single-dose growth inhibition screen; assay type: cell-based; details: Homo sapiens; Non-Small Cell Lung Cancer NCI-H460; single dose 10^−5 M
[2] = test system: P. aeruginosa ATCC 27,853; experiment: Antibacterial screening, agar cup diffusion method; assay type: cell-based; details: Gram –ve strain; for MIC: Pseudomonas aeruginosa, ATCC27, read-out: Minimum inhibitory concentrations (MIC, µM) P. aeruginosa ATCC 27,853
Description: as §1

OVCAR-4 = experiment: NCI single-dose growth inhibition screen; assay type: cell-based; details: Homo sapiens; Ovarian Cancer OVCAR-4; single dose 10^−5 M
PC-3 = experiment: NCI single-dose growth inhibition screen; assay type: cell-based; details: Homo sapiens; Prostate Cancer PC-3; single dose 10^−5 M
SN12C = experiment: NCI single-dose growth inhibition screen; assay type: cell-based; details: Homo sapiens; Renal Cancer SN12C; single dose 10^−5 M
S. aureus ATCC 6538 = experiment: Antibacterial screening, agar cup diffusion method; assay type: cell-based; details: Gram + ve strain; for MIC: Staphylococcus aureus, ATCC6538, read-out: Minimum inhibitory concentrations (MIC, µM) S. aureus ATCC 6538
Description: as §1

SR = experiment: NCI single-dose growth inhibition screen; assay type: cell-based; details: Homo sapiens; Leukemia SR; single dose 10^−5 M
E. coli ATCC 25,922 = experiment: Antibacterial screening, agar cup diffusion method; assay type: cell-based; details: read-out: Minimum inhibitory concentrations (MIC, µM) E. coli ATCC 25,922
Description: as §1

human melanoma LOX IMVI = experiment: cells; details: for IC50: read-out: In vitro cytotoxicity (IC50) LOX IMVI (µM ± SEM)
UACC-257 = experiment: NCI single-dose growth inhibition screen; assay type: cell-based; details: Homo sapiens; Melanoma UACC-257; single dose 10^−5 M
ACHN = experiment: NCI single-dose growth inhibition screen; assay type: cell-based; details: Homo sapiens; Renal Cancer ACHN; single dose 10^−5 M
HOP-62 = experiment: NCI single-dose growth inhibition screen; assay type: cell-based; details: Homo sapiens; Non-Small Cell Lung Cancer HOP-62; single dose 10^−5 M
EKVX = experiment: NCI single-dose growth inhibition screen; assay type: cell-based; details: Homo sapiens; Non-Small Cell Lung Cancer EKVX; single dose 10^−5 M
SF-268 = experiment: NCI single-dose growth inhibition screen; assay type: cell-based; details: Homo sapiens; CNS Cancer SF-268; single dose 10^−5 M
NCI-H23 = experiment: NCI single-dose growth inhibition screen; assay type: cell-based; details: Homo sapiens; Non-Small Cell Lung Cancer NCI-H23; single dose 10^−5 M
A498 = experiment: NCI single-dose growth inhibition screen; assay type: cell-based, human; details: single dose 10^−5 M; for inhibition at 10 µM: Homo sapiens, A498, Renal Cancer A498; for Growth Inhibition (%): Renal Cancer A498
MALME-3 M = experiment: NCI single-dose growth inhibition screen; assay type: cell-based; details: Homo sapiens; Melanoma MALME-3 M; single dose 10^−5 M
RPMI-8226 = experiment: NCI single-dose growth inhibition screen; assay type: cell-based; details: Homo sapiens; Leukemia RPMI-8226; single dose 10^−5 M
CCRF-CEM = experiment: NCI single-dose growth inhibition screen; assay type: cell-based; details: Homo sapiens; Leukemia CCRF-CEM; single dose 10^−5 M
A549/ATCC = experiment: NCI single-dose growth inhibition screen; assay type: cell-based; details: Homo sapiens; Non-Small Cell Lung Cancer A549/ATCC; single dose 10^−5 M
[3] = Klebsiella pneumoniae, ATCC10, Gram –ve strain
[4] = Escherichia coli, ATCC25, Gram –ve strain

| Structure (SMILES) | inhibition at 10 µM (NCI-H322M) [%] | inhibition at 10 µM (MDA-MB231) [%] | inhibition at 10 µM (DU-145) [%] | inhibition at 10 µM (OVCAR-8) [%] | inhibition at 10 µM (LOX IMVI) [%] | inhibition at 10 µM (HOP-92) [%] | inhibition at 10 µM (SK-MEL-5) [%] | inhibition at 10 µM (CAKI-1) [%] | inhibition at 10 µM (MOLT-4) [%] | inhibition at 10 µM (786-0) [%] | inhibition at 10 µM (NCI-H460) [%] | MIC [2] [µM] | inhibition at 10 µM (OVCAR-4) [%] | inhibition at 10 µM (PC-3) [%] | inhibition at 10 µM (SN12C) [%] | MIC (S. aureus ATCC 6538) [µM] | inhibition at 10 µM (SR) [%] | MIC (E. coli ATCC 25,922; [4]) [µM] | viability at 0.4 µM (human melanoma LOX IMVI) [%] | viability at 1.6 µM (human melanoma LOX IMVI) [%] | other results |
| --- | --- | --- | --- | --- | --- | --- | --- | --- | --- | --- | --- | --- | --- | --- | --- | --- | --- | --- | --- | --- | --- |
| COc1ccc(C=C2SC(=O)N(CCCC(=O)N3CCN(c4cc5c(cc4F)c(=O)c(C(=O)O)cn5C4CC4)CC3)C2=O)cc1 [3e, 1-cyclopropyl-6-fluoro-7-[4-[4-[5-[(4-methoxyphenyl)methylene]-2,4-dioxo-thiazolidin-3-yl]butanoyl]piperazin-1-yl]-4-oxoquinoline-3-carboxylic acid] | 6 | 12.4 | < 0 | 5.3 | 42.5 | 8.3 | 3.9 | 5.5 | < 0 | 18.7 | 0 | > 20 | < 0 | < 0 | < 0 | > 20 | 4.3 | 1.94 to 2.6 (≈ 1.23 to 1.65 µg/mL) | 76.7 | 67.7 | MIC ([1]; Gram –ve strain): 0.19 µM (≈ 0.121 µg/mL); MIC [1, 3]: 0.13 to 0.8 µM (≈ 0.0825 to 0.508 µg/mL); inhibition at 10 µM (HS 578T): 2.4%; MIC (E. coli ATCC 25,922; Gram –ve strain): 1.94 µM (≈ 1.23 µg/mL); viability at 25 µM (human melanoma LOX IMVI): 52%; viability at 100 µM (human melanoma LOX IMVI): 47.4%; inhibition at 10 µM (UACC-257): 19.7%; inhibition at 10 µM (ACHN): 1.2%; inhibition at 10 µM (HOP-62): < 0%; inhibition at 10 µM (EKVX): 0.4%; inhibition at 10 µM (SF-268): 2.3%; inhibition at 10 µM (NCI-H23): 2.6%; inhibition at 10 µM (A498): 32%; inhibition at 10 µM (MALME-3 M): 2.9%; inhibition at 10 µM (RPMI-8226): < 0%; inhibition at 10 µM (CCRF-CEM): < 0%; inhibition at 10 µM (A549/ATCC): 7.9% |
| O=C(O)c1cn(C2CC2)c2cc(N3CCN(C(=O)CCCN4C(=O)CSC4=O)CC3)c(F)cc2c1=O [3 L, 1-Cyclopropyl-7-(4-(4-(2,4-dioxothiazolidin-3-yl)butanoyl)piperazin-1-yl)-6-fluoro-4-oxo-1,4-dihydroquinoline-3-carboxylic acid] | 0 | 10.1 | 8.3 | < 0 | 0 | 0.7 | < 0 | 22.7 | < 0 | 4.8 | 0 | > 20 | 19.2 | 2.4 | 14.6 | > 20 | < 0 | > 20 | 84.8 | 78.9 | MIC [1, 3]: > 20 µM; Growth Inhibition (%) (LOX IMVI): - (- means no detected activity); viability at 25 µM (human melanoma LOX IMVI): 59.8%; viability at 100 µM (human melanoma LOX IMVI): 49.1%; IC50 (human melanoma LOX IMVI): 109 ± 6.15 µM; inhibition at 10 µM (UACC-257): < 0%; inhibition at 10 µM (ACHN): 0.6%; inhibition at 10 µM (HOP-62): 16.8%; inhibition at 10 µM (EKVX): 23.8%; inhibition at 10 µM (SF-268): 15.1%; inhibition at 10 µM (NCI-H23): 5.7%; inhibition at 10 µM (A498): 45.1%; Growth Inhibition (%) (A498): 45.1%; inhibition at 10 µM (MALME-3 M): < 0%; inhibition at 10 µM (RPMI-8226): 6%; melting point: 230 °C; inhibition at 10 µM (A549/ATCC): 6.7% |
| O=C(O)c1cn(C2CC2)c2cc(N3CCN(C(=O)CCCN4C(=O)S/C(=C\c5ccc([N+](=O)[O-])cc5)C4=O)CC3)c(F)cc2c1=O [3k] | < 0 | 11.2 | 7 | < 0 | 8.88 | 0.2 | 0.8 | 19.5 | < 0 | 14.1 | < 0 | > 20 | 13.7 | < 0 | 8.7 | > 20 | 9.7 | 0.25 (≈ 0.162 µg/mL) | 110 | 102 | Growth Inhibition (%) (LOX IMVI): 8.9%; viability at 25 µM (human melanoma LOX IMVI): 80.2%; viability at 100 µM (human melanoma LOX IMVI): 65.4%; IC50 (human melanoma LOX IMVI): > 150 µM; inhibition at 10 µM (UACC-257): < 0%; inhibition at 10 µM (ACHN): 0.1%; inhibition at 10 µM (HOP-62): 19.7%; inhibition at 10 µM (EKVX): 24.4%; inhibition at 10 µM (SF-268): 13.3%; inhibition at 10 µM (NCI-H23): 6.2%; inhibition at 10 µM (MALME-3 M): < 0%; inhibition at 10 µM (RPMI-8226): 8.7%; melting point: 299 to 300 °C; inhibition at 10 µM (A549/ATCC): 5.5% |
| O=C(O)c1cn(C2CC2)c2cc(N3CCN(C(=O)CCCN4C(=O)S/C(=C\c5ccc(F)cc5)C4=O)CC3)c(F)cc2c1=O [3i] | 11.5 | 26.4 | < 0 | 6.8 | 51.3 | 5.7 | 5.5 | 4.9 | < 0 | 18.2 | < 0 | > 20 | 0.5 | < 0 | 2.2 | > 20 | 3.6 | 0.54 (≈ 0.336 µg/mL) | 74.9 | 67.8 | MIC [1, 3]: > 20 µM; Growth Inhibition (%) (LOX IMVI): 51.3%; inhibition at 10 µM (HS 578T): 3%; Minimum inhibitory concentrations (MIC, µM) P. aeruginosa ATCC 27,853 [2]: did not show considerable anti-bacterial activity; Minimum inhibitory concentrations (MIC, µM) S. aureus ATCC 6538 (S. aureus ATCC 6538): did not show considerable anti-bacterial activity; viability at 25 µM (human melanoma LOX IMVI): 51.5%; viability at 100 µM (human melanoma LOX IMVI): 41.2%; IC50 (human melanoma LOX IMVI): 25.4 ± 1.43 µM; inhibition at 10 µM (UACC-257): 12.3%; inhibition at 10 µM (ACHN): 4.6%; inhibition at 10 µM (HOP-62): 2.9%; inhibition at 10 µM (EKVX): < 0%; inhibition at 10 µM (SF-268): 3.1%; inhibition at 10 µM (NCI-H23): 6.5%; inhibition at 10 µM (A498): 41.5%; Growth Inhibition (%) (A498): 41.5%; inhibition at 10 µM (MALME-3 M): 14.8%; inhibition at 10 µM (RPMI-8226): < 0%; inhibition at 10 µM (CCRF-CEM): 4.2%; inhibition at 10 µM (A549/ATCC): 10.4% |
